{"source": "patent US8232315B2", "about": "“Methods for treating drug addiction and improving addiction-related behavior” (SK Biopharmaceuticals Co., Ltd., priority 2009, dated 2012)", "tested_on": "monkeys trained to discriminate cocaine (0.40 mg/kg) from saline", "experiment": "Cocaine drug discrimination (substitution protocol) in rhesus monkeys", "assay_type": "in vivo, rhesus monkeys (Macaca mulatta)", "settings": "0.40 mg/kg cocaine i.m.; training days preceding test days", "excerpt": "Subjects: The subjects were four male rhesus monkeys (Macaca mulatta) each weighing 7.0-8.0 kg. Each monkey was maintained on a diet of 7-12 monkey biscuits (Purina Monkey Chow Jumbo #5037) and one piece of fresh fruit per day. During the week, all food was delivered after the experimental session, whereas on weekends, food was delivered between 9 a.m. and noon. Water was freely available at all times. The room in which the monkeys were housed was maintained on a 12-hr light/dark cycle, with lights on from 7 a.m. to 7 p.m.\nApparatus: Each monkey was housed individually in a well-ventilated, stainless steel chamber (56×71×69 cm). The home cages of all monkeys were modified to include an operant panel (28×28 cm) mounted on the front wall. Three square translucent response keys (6.4×6.4 cm) were arranged 2.54 cm apart in a horizontal row 3.2 cm from the top of the operant panel. Each key could be transilluminated by red or green stimulus lights (Superbright LED'S). In addition, the operant panel supported an externally mounted pellet dispenser (Gerbrands, Model G53 10, Arlington, Mass.) that delivered 1 gm fruit-flavored food pellets (Precision Primate Pellets Formula L/I Banana Flavor, P. J. Noyes Co., Lancaster, N.H.) to a food receptacle mounted on the cage beneath the operant response panel. Operation of the operant panels and data collection were accomplished with IBM-compatible computers and interface systems (MedAssociates; St. Albans, Vt.) located in a separate room.\nDiscrimination Training: Discrimination training was conducted 5 days per week during daily sessions composed of multiple cycles. Each cycle consisted of a 15-min time-out period followed by a 5-min response period. During the time-out, all stimulus lights were off, and responding had no scheduled consequences. During the response period, the right and left response keys were transilluminated red or green, and monkeys could earn up to 10 food pellets by responding under a FR 30 schedule of food presentation. For all four monkeys in this study, the left key was illuminated green, and the right key was illuminated red. The center key was not illuminated at any time, and responding on the center key had no scheduled consequences. If all available food pellets were delivered before the end of the 5-min response period, the stimulus lights transilluminating the response keys were turned off, and responding had no scheduled consequences for the remainder of the 5-min period.\nOn training days, monkeys were given an i.m. injection of either saline or 0.40 mg/kg cocaine 5-min after the beginning of each time-out period (i.e., 10 min before the response period). Following the administration of saline, responding on only the green key (the saline-appropriate key) produced food, whereas following administration of 0.40 mg/kg cocaine, only responding on the red key (the drug-appropriate key) produced food. Responses on the inappropriate key reset the FR requirement on the appropriate key. Sessions consisted of 1 to 5 cycles, and if the training dose of cocaine was administered, it was administered only during the last cycle. Thus, training days consisted of 0 to 5 saline cycles followed by 0 to 1 drug cycles.\nDuring each response period, 3 dependent variables were determined using the following equations.\n1) Percent injection-appropriate responding prior to delivery of the first reinforcer.\n2) Percent injection-appropriate responding for the entire response period.\nMonkeys were considered to have acquired cocaine discrimination when the following three criteria were met for 7 of 8 consecutive training sessions: 1) the percent injection-appropriate responding prior to delivery of the first reinforcer was greater than or equal to 80% for all cycles; 2) the percent injection-appropriate responding for the entire cycle was greater than or equal to 90% for all cycles; 3) response rates during saline training cycles were greater than 0.5 responses per second. […]"}
{"compound": "COC(=O)[C@H]1[C@@H](OC(=O)c2ccccc2)C[C@@H]2CC[C@H]1N2C", "note": "[cocaine, reference compound]", "values": [{"measurement": "Mean response rate during drug training cycles", "result": "2.58 (±0.67) responses/sec"}]}
